Target: T1, GPR158 (Homo sapiens, UniProt Q5T848)
T1 sequence (Q5T848 24-1215): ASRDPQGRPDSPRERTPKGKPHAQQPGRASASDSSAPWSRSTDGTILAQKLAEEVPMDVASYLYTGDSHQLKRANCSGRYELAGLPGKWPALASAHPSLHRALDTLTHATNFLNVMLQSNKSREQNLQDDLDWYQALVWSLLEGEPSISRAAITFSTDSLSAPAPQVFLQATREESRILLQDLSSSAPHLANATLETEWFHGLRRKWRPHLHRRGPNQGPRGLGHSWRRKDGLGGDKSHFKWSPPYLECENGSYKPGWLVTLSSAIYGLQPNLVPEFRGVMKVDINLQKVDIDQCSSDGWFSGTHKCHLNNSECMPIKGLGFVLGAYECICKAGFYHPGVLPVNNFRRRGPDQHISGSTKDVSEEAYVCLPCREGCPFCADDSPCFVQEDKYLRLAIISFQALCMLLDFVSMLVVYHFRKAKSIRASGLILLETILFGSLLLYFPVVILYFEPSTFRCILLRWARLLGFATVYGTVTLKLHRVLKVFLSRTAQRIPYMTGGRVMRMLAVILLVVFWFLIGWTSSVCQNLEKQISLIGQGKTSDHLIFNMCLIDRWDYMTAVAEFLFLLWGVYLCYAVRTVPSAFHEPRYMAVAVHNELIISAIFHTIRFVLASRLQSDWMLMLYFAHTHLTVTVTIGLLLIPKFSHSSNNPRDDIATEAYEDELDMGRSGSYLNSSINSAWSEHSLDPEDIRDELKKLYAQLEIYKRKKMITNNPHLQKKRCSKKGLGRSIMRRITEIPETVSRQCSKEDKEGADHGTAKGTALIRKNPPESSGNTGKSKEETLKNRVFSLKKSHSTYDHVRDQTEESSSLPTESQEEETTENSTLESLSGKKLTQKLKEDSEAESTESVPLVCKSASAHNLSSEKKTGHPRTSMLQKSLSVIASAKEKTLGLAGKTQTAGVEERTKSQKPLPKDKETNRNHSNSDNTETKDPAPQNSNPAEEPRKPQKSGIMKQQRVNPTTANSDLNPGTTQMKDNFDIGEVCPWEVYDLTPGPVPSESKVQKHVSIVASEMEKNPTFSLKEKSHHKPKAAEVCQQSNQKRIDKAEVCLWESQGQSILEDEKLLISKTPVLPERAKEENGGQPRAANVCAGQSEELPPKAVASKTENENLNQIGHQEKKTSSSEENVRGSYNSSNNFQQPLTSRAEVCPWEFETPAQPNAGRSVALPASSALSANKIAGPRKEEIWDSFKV
Experiment: Radioligand competition binding assay vs ^3H-glycine
Design: expressed in transfected cells; host or cells: HEK293FT
Settings: for IC50: membranes from HEK293 cells expressing GPR158, 4 experiments, mean±s.e.m., read-out: IC50 (displacement of ^3H-glycine)
Experimental: FIG. 8. Radioligand competition binding assay comparing binding of glycine and taurine to GPR158 Membranes from HEK293 cells expressing GPR158 were first incubated with ^3H-Glycine setting binding to 100% and then exposed to increasing concentrations of cold glycine (open circles) or cold taurine (circles with angled-line fill). Data shown are from 4 independent experiments, mean±s.e.m.
Next, the inventors performed radioligand binding assays examining binding of [^3H]-labeled glycine to HEK293 cells expressing GPR158 (FIG. 7A). […] The inventors have then isolated cellular membranes and conducted classical radioligand titration experiments (FIG. 9D). The inventors detected saturable [^3H]-glycine binding to membranes containing GPR158 is substantial excess over linear non-specific binding to membranes devoid of GPR158 (FIG. 9E). Scatchard analysis (FIG. 9F) estimated Kd of GPR158 for glycine to be ~3 μM. The inventors further performed binding competition experiments directly comparing the ability of glycine and taurine to displace [^3H]-labeled glycine bound to GPR158 (FIG. 8).
The functional data shown represent the average±SEM of 3-9 individual experiments each performed in triplicate or indicated in each figure and expressed as means±standard error means (s.e.m). For cAMP assays, cells transfected with empty vector were used as control and one-way ANOVA test was performed. For the GAP assay, cells with the same transfection conditions were compared on their treatment and two-way ANOVA test was performed. The non-linear regression curve was used to fit on the dose response curve giving the IC50 value. For the flow cytometry and radioligand binding assays cells transfected with empty vector were used as control and two-way ANOVA test was performed. For the radioligand competition assay, dissociation-One phase exponential decay was used to fit on data and give the Ki value. For the ITC dose response curve, the non-linear regression curve was used to fit on the curve. […] For the electrophysiology experiments changes was assessed in nonparametric t-test; Wilcoxon test. […]

affinity of taurine relative to glycine (competition binding IC50 comparison)	IC50	Structure (SMILES)
two fold lower affinity	~6 µM	NCCS(=O)(=O)O [taurine, 2-aminoethanesulfonic acid]
	~3 µM	NCC(=O)O [glycine]
